Assay results published in US4571396A, “Antibacterial agents” (Warner-Lambert Company, priority 1985, dated 1986).
≈ marks a conversion by molar mass, not a printed value. Structures can show the parent of a compound that is named as a salt. Where two headings read alike, the source gives them in different places.

How the values were obtained:
Assay in all cases: In vitro antibacterial activity, microtitration dilution method (MIC)
Type in all cases: cell-based
[1] = tested on: Staphylococcus aureus H 228; settings: H228, read-out: Minimal Inhibitory Concentration MIC
Source text: The compounds of the invention display antibacterial activity when tested by the microtitration dilution method as described in Heifetz, et al, Antimicr. Agents & Chemoth., 6, 124 (1974), which is incorporated herein by reference.
By use of the above reference method, the followed minimum inhibitory concentration value (MICs in μg/ml) shown in the table were obtained for representative compounds of the invention.

[2] = tested on: Staphylococcus aureus UC-76
Source text: (§1) Agents & Chemoth., 6, 124 (1974), which is incorporated herein by reference.

[3] = tested on: Proteus rettgeri M 1771; settings: Providencia rettgeri
Source text: as §1

[4] = tested on: Streptococcus pyogenes C-203
Source text: as §1

[5] = tested on: Escherichia coli Vogel; settings: read-out: Minimal Inhibitory Concentration MIC
Source text: as §1

[6] = tested on: Streptococcus faecalis MGH-2; settings: Enterococcus faecalis
Source text: as §1

[7] = tested on: Pseudomonas aeruginosa UI-18
Source text: as §1

[8] = tested on: Streptococcus pneumoniae SV-1
Source text: as §1

[9] = tested on: Enterobacter cloacae MA 2646
Source text: as §1

[10] = tested on: Klebsiella pneumoniae MGH-2
Source text: as §1

[11] = UC76, Staphylococcus aureus UC-76, in vitro, read-out: Minimal Inhibitory Concentration MIC
[12] = M1771, Proteus rettgeri M 1771, in vitro, read-out: Minimal Inhibitory Concentration MIC
[13] = C203, Streptococcus pyogenes C-203, in vitro, read-out: Minimal Inhibitory Concentration MIC
[14] = MGH2, Streptococcus faecalis MGH-2, in vitro, read-out: Minimal Inhibitory Concentration MIC
[15] = UI18, Pseudomonas aeruginosa UI-18, in vitro, read-out: Minimal Inhibitory Concentration MIC
[16] = SV1, Streptococcus pneumoniae SV-1, in vitro, read-out: Minimal Inhibitory Concentration MIC
[17] = MA2646, Enterobacter cloacae MA 2646, in vitro, read-out: Minimal Inhibitory Concentration MIC
[18] = MGH2, Klebsiella pneumoniae MGH-2, in vitro, read-out: Minimal Inhibitory Concentration MIC

O=C(O)c1cn(C2CC2)c2c(F)c(N3CCN4CCC3C4)c(F)cc2c1=O (stereo not drawn) [Ex. 17, 1-Cyclopropyl-7-(1,4-diazabicyclo[3.2.1]oct-4-yl)-6,8-difluoro-1,4-dihydro-4-oxo-3-quinolinecarboxylic acid]
MIC [1]: 0.4 µg/mL (≈ 1.07 µM) | MIC [2, 11]: 0.025 µg/mL (≈ 0.0666 µM) | MIC [3, 12]: 0.2 µg/mL (≈ 0.533 µM) | MIC [4, 13]: 0.1 µg/mL (≈ 0.266 µM) | MIC [5]: 0.05 µg/mL (≈ 0.133 µM) | MIC [6, 14]: 0.2 µg/mL (≈ 0.533 µM) | MIC [7, 15]: 0.4 µg/mL (≈ 1.07 µM) | MIC [8, 16]: 0.4 µg/mL (≈ 1.07 µM) | MIC [9, 17]: 0.025 µg/mL (≈ 0.0666 µM) | MIC [10, 18]: 0.05 µg/mL (≈ 0.133 µM)

CCn1cc(C(=O)O)c(=O)c2cc(F)c(N3[C@@H]4CC[C@H]3C[C@H](N)C4)nc21 [Ex. 20, 7-(3-(Exo-amino)-8-azabicyclo[3.2.1]oct-8-yl]-1-ethyl-6-fluoro-1,4-dihydro-4-oxo-1,8-naphthyridine-3-carboxylic acid, hydrochloride]
MIC [1]: 0.4 µg/mL | MIC ([2]; Staphylococcus aureus, UC76, read-out: Minimal Inhibitory Concentration MIC): 0.2 µg/mL | MIC [3, 12]: 0.8 µg/mL | MIC [4, 13]: 0.4 µg/mL | MIC [5]: 0.4 µg/mL | MIC [6, 14]: 0.8 µg/mL | MIC [7, 15]: 0.8 µg/mL | MIC [8, 16]: 0.4 µg/mL | MIC [9, 17]: 0.8 µg/mL | MIC [10, 18]: 0.4 µg/mL

CN1CC2CC1CN2c1nc2c(cc1F)c(=O)c(C(=O)O)cn2C1CC1 (stereo not drawn) [Ex. 10b, 1-cyclopropyl-6-difluoro-1,4-dihydro-7-(5-methyl-2,5-diazabicyclo[2.2.1]hept-2-yl)-4-oxo-1,8-naphthyridine-3-carboxylic acid monohydrochloride]
MIC [1]: 0.4 µg/mL | MIC [2, 11]: 0.1 µg/mL | MIC [3, 12]: 0.4 µg/mL | MIC [4, 13]: 0.4 µg/mL | MIC [5]: 0.05 µg/mL | MIC ([6]; MGH2, read-out: Minimal Inhibitory Concentration MIC): 0.8 µg/mL | MIC ([7]; Pseudomonas aeruginosa, UI18, read-out: Minimal Inhibitory Concentration MIC): 0.4 µg/mL | MIC [8, 16]: 0.4 µg/mL | MIC [10, 18]: 0.05 µg/mL

Cl.O=C(O)c1cn(C2CC2)c2nc(N3CC4CC3CN4)c(F)cc2c1=O (stereo not drawn) [Ex. 7c, 1-cyclopropyl-7-[2,5-diazabicyclo(2.2.1)hept-2-yl]-6-fluoro-1,4-dihydro-4-oxo-1,8-naphthyridine-3-carboxylic acid, monohydrochloride]
MIC [1]: 0.8 µg/mL | MIC [2, 11]: 0.2 µg/mL | MIC [3, 12]: 0.2 µg/mL | MIC [4, 13]: 0.2 µg/mL | MIC [5]: 0.1 µg/mL | MIC [6, 14]: 0.8 µg/mL | MIC [8, 16]: 0.8 µg/mL | MIC [9, 17]: 0.05 µg/mL | MIC [10, 18]: 0.05 µg/mL

CCn1cc(C(=O)O)c(=O)c2cc(F)c(N3CC4CCC3CN4)c(F)c21 (stereo not drawn) [Ex. 2, 7-(2,5-Diazabicyclo[2.2.2]oct-2-yl)-1-ethyl-6,8-difluoro-1,4-dihydro-4-oxo-3-quinolinecarboxylic acid]
MIC [1]: 0.4 µg/mL (≈ 1.1 µM) | MIC [2, 11]: ≤ 0.1 µg/mL | MIC [3, 12]: 0.8 µg/mL (≈ 2.2 µM) | MIC [4, 13]: 0.4 µg/mL (≈ 1.1 µM) | MIC [5]: 0.1 µg/mL (≈ 0.275 µM) | MIC [6, 14]: 1.6 µg/mL (≈ 4.4 µM) | MIC [7, 15]: 0.4 µg/mL (≈ 1.1 µM) | MIC [8, 16]: 0.8 µg/mL (≈ 2.2 µM) | MIC [9, 17]: 0.2 µg/mL (≈ 0.55 µM) | MIC [10, 18]: 0.4 µg/mL (≈ 1.1 µM)

O=C(O)c1cn(C2CC2)c2c(F)c(N3CC4CCC3CN4)c(F)cc2c1=O (stereo not drawn) [Ex. 3, 7-(2,5-Diazabicyclo[2.2.2]oct-2-yl)-1-cyclopropyl-6,8-difluoro-1,4-dihydro-4-oxo-3-quinolinecarboxylic acid]
MIC [1]: 0.4 µg/mL (≈ 1.07 µM) | MIC [2, 11]: 0.025 µg/mL (≈ 0.0666 µM) | MIC [3, 12]: 0.8 µg/mL (≈ 2.13 µM) | MIC ([4]; Streptococcus pyogenes, C203, read-out: Minimal Inhibitory Concentration MIC): 0.8 µg/mL (≈ 2.13 µM) | MIC [5]: 0.05 µg/mL (≈ 0.133 µM) | MIC [6, 14]: 1.6 µg/mL (≈ 4.26 µM) | MIC [7, 15]: 0.8 µg/mL (≈ 2.13 µM) | MIC ([8]; Streptococcus pneumoniae, SV1, read-out: Minimal Inhibitory Concentration MIC): 1.6 µg/mL (≈ 4.26 µM) | MIC ([9]; Enterobacter cloacae, MA2646, read-out: Minimal Inhibitory Concentration MIC): 0.05 µg/mL (≈ 0.133 µM) | MIC [10, 18]: 0.1 µg/mL (≈ 0.266 µM)

O=C(O)c1cn(C2CC2)c2c(F)c(N3CC4CC3CN4)c(F)cc2c1=O (stereo not drawn) [Ex. 7d, 1-cyclopropyl-7-[2,5-diazabicyclo(2.2.1)hept-2-yl]-6,8-difluoro-1,4-dihydro-4-oxo-3-quinolinecarboxylic acid]
MIC [1]: 0.8 µg/mL (≈ 2.21 µM) | MIC [2, 11]: 0.2 µg/mL (≈ 0.553 µM) | MIC ([3]; M1771, read-out: Minimal Inhibitory Concentration MIC): 0.1 µg/mL (≈ 0.277 µM) | MIC [4, 13]: 0.2 µg/mL (≈ 0.553 µM) | MIC [5]: 0.05 µg/mL (≈ 0.138 µM) | MIC [6, 14]: 0.8 µg/mL (≈ 2.21 µM) | MIC [7, 15]: 0.2 µg/mL (≈ 0.553 µM) | MIC [8, 16]: 1.6 µg/mL (≈ 4.43 µM) | MIC [9, 17]: 0.1 µg/mL (≈ 0.277 µM) | MIC [10, 18]: 0.1 µg/mL (≈ 0.277 µM)

CCn1cc(C(=O)O)c(=O)c2cc(F)c(N3CC4CCC3CN4C)nc21.Cl (stereo not drawn) [Ex. 10a, 1-Ethyl-6-fluoro-7-(5-methyl-2,5-diazabicyclo[2.2.2]oct-2-yl)-1,4-dihydro-4-oxo-1,8-naphthyridine-3-carboxylic acid hydrochloride]
MIC [1]: 0.4 µg/mL | MIC [2, 11]: 0.2 µg/mL | MIC [3, 12]: 1.6 µg/mL | MIC [4, 13]: 1.6 µg/mL | MIC [5]: 0.4 µg/mL | MIC [6, 14]: 1.6 µg/mL | MIC [7, 15]: 1.6 µg/mL | MIC [8, 16]: 1.6 µg/mL | MIC [9, 17]: < 0.1 µg/mL | MIC [10, 18]: 0.4 µg/mL

O=C(O)c1cn(C2CC2)c2nc(N3CC4CCC3CN4)c(F)cc2c1=O (stereo not drawn) [Ex. 6a, 7-(2,5-diazabicyclo[2.2.2]oct-2-yl)-1-cyclopropyl-6-fluoro-1,4-dihydro-4-oxo-1,8-naphthyridine-3-carboxylic acid]
MIC [1]: 0.05 µg/mL (≈ 0.14 µM) | MIC [2, 11]: 0.006 µg/mL (≈ 0.0167 µM) | MIC [3, 12]: 0.4 µg/mL (≈ 1.12 µM) | MIC [4, 13]: 0.4 µg/mL (≈ 1.12 µM) | MIC [5]: 0.1 µg/mL (≈ 0.279 µM) | MIC [6, 14]: 0.4 µg/mL (≈ 1.12 µM) | MIC [7, 15]: 0.2 µg/mL (≈ 0.558 µM) | MIC [8, 16]: 0.4 µg/mL (≈ 1.12 µM) | MIC [9, 17]: 0.1 µg/mL (≈ 0.279 µM) | MIC [10, 18]: 0.05 µg/mL (≈ 0.14 µM)

CN1CC2CC1CN2c1c(F)cc2c(=O)c(C(=O)O)cn(C3CC3)c2c1F.Cl (stereo not drawn) [Ex. 10c, 1-cyclopropyl-6,8-difluoro-1,4-dihydro-7-(5-methyl-2,5-diazabicyclo[2.2.1]hept-2-yl)-4-oxo-3-quinolinecarboxylic acid monohydrochloride]
MIC [1]: 0.1 µg/mL | MIC [2, 11]: 0.025 µg/mL | MIC [3, 12]: 0.2 µg/mL | MIC [4, 13]: 0.4 µg/mL | MIC [5]: 0.05 µg/mL | MIC [6, 14]: 0.4 µg/mL | MIC [7, 15]: 0.4 µg/mL | MIC [8, 16]: 0.4 µg/mL | MIC [9, 17]: 0.1 µg/mL | MIC [10, 18]: 0.05 µg/mL

CCn1cc(C(=O)O)c(=O)c2cc(F)c(N3CCN4CCC3C4)c(F)c21 (stereo not drawn) [Ex. 16, 7-(1,4-Diazabicyclo[3.2.1]oct-4-yl)-1-ethyl-6,8-difluoro-1,4-dihydro-4-oxo-3-quinolinecarboxylic acid]
MIC [1]: 0.4 µg/mL (≈ 1.1 µM) | MIC [2, 11]: 0.1 µg/mL (≈ 0.275 µM) | MIC [3, 12]: 0.2 µg/mL (≈ 0.55 µM) | MIC [4, 13]: 0.4 µg/mL (≈ 1.1 µM) | MIC [6, 14]: 0.8 µg/mL (≈ 2.2 µM) | MIC [7, 15]: 0.4 µg/mL (≈ 1.1 µM) | MIC [8, 16]: 0.8 µg/mL (≈ 2.2 µM) | MIC [9, 17]: 0.5 µg/mL (≈ 1.38 µM) | MIC [10, 18]: 0.1 µg/mL (≈ 0.275 µM)

O=C(O)c1cn(C2CC2)c2nc(N3CCN4CCC3C4)c(F)cc2c1=O (stereo not drawn) [Ex. 14]
MIC [1]: 0.8 µg/mL (≈ 2.23 µM) | MIC [2, 11]: 0.1 µg/mL (≈ 0.279 µM) | MIC [3, 12]: 0.4 µg/mL (≈ 1.12 µM) | MIC [4, 13]: 0.4 µg/mL (≈ 1.12 µM) | MIC [5]: 0.05 µg/mL (≈ 0.14 µM) | MIC [6, 14]: 0.8 µg/mL (≈ 2.23 µM) | MIC [7, 15]: 0.8 µg/mL (≈ 2.23 µM) | MIC [8, 16]: 0.8 µg/mL (≈ 2.23 µM) | MIC [9, 17]: 0.1 µg/mL (≈ 0.279 µM) | MIC ([10]; Klebsiella pneumoniae, MGH2, read-out: Minimal Inhibitory Concentration MIC): 0.1 µg/mL (≈ 0.279 µM)
